Assay results as given in article PMC11002875, “Linking triphenylphosphonium cation to a bicyclic hydroquinone improves their antiplatelet effect via the regulation of mitochondrial function” (Redox Biology, 2024).
Read-outs that look alike come from different tables or passages of the source.

Experiments:
[1] = system: platelet-rich plasma (PRP); assay: Clot retraction; design: species or system Human; conditions: 10 μM; thrombin 0.5 Units/mL; 2 h
Method: Clot retraction. Blood was obtained in 3.2% citrate tubes, which were centrifuged for 12 min at 250 g to obtain platelet-rich plasma (PRP). The assay was prepared in Khan tubes by adding 750 μL of tyrodes buffer without calcium, 200 μL of PRP, and 5 μL of red blood cells; the mixture was treated with NP4 10 μM or vehicle and incubated for 10 min. A glass rod was positioned in the center of the tube (as a support for clot adhesion) and clot retraction was initiated by adding 50 μl of 10 Units/mL thrombin (final concentration 0.5 Units/mL). Photographs were recorded at 0; 15; 30; 60; 90; and 120 min time intervals. The clots formed after 2 h were weighed to quantify retraction.

[2] = system: Washed platelets; assay: Platelet aggregation in washed platelets (aggregometer); format: cell-based, Human; conditions: for IC50: Homo sapiens, Platelet
Method: (§1) Human platelet purification. The blood sample was obtained from voluntary donors (10 days without antiplatelet medication) who agreed to participate after signing informed consent (Scientific Ethics Committee of the University of Talca N° 04–2022). Briefly, blood anticoagulated with acid-citrate-dextrose (ACD) was obtained in a 4:1 v/v ratio. The sample was centrifuged for 12 min at 250 g to obtain platelet-rich plasma (PRP). Subsequently, the PRP was centrifuged for 8 min at 900 g to obtain the platelet pellet. The plasma supernatant was removed, and the platelets were resuspended in Tyrodes buffer without calcium plus ACD in a ratio of 5:1 v/v. The platelets were centrifuged once more for 8 min at 900 g and the pellet was resuspended in Tyrodes buffer without calcium. Finally, the platelets were counted (Mindray BC-3000 Plus hematology counter, Japan), adjusted to the desired concentration, and used within 3 h.
Platelet aggregation. Washed platelets (200-250 × 10^6 platelets/mL) were preincubated with 2 mM CaCl2 and then with the compounds under study for 5 min at 37 °C in the aggregometer (Agg RAM- Helena Biosciences). Aggregation was initiated with the agonists: collagen 2 μg/mL; convulxin 20 ng/mL; TRAP-6 (Thrombin receptor activator peptide 6) 5 μM; PMA (Phorbol myristate acetate) 100 nM or arachidonic acid 250 μg/mL. The aggregation curve was evaluated for 5 min at 37 °C in shaking at 1000 rpm.

[3] = system: Washed platelets; assay: Cell viability by Calcein-AM (flow cytometry); format: cell-based, Human; conditions: 1, 2, 5, 10 and 20 μM; 15 min
Method: as §1
Cell viability by Calcein-AM. Washed platelets (200-250 × 10^6 platelets/mL) were labeled with 0.1 μM Calcein-AM and incubated for 15 min at 37 °C protected from light. […] Viability was analyzed on the BD Facs Lyric Flow Cytometer (BD Biosciences, USA). The percentage of Calcein-negative platelets (without fluorescence) in the CD61-PE-positive subpopulation (BD Biosciences, San José, CA, USA) was identified as non-viable platelets. […]

[4] = system: Washed platelets; assay: Mitochondrial ROS (mtROS) levels (MitoSOX); format: cell-based, Human
Method: as §1
Mitochondrial ROS (mtROS) Levels. The MitoSOX probe was used to identify mitochondrial ROS production specifically. Washed platelets (50 × 10^6 platelets/mL) were labeled with the MitoSOX® Red probe (Invitrogen, Carlsbad, CA, USA) 10 μM and incubated for 20 min at 37 °C protected from light. After, compounds (1, 5, and 10 μM) were added to the platelets and incubated for 10 min at 37 °C. […]

Cc1c(C)c(O)c2c(c1O)C(=O)C(CCCC[P+](c1ccccc1)(c1ccccc1)c1ccccc1)=CC2(C)C.[Br-] [NP4, (4-(5,8-dihydroxy-4,4,6,7-tetramethyl-1-oxo-1,4-dihydronaphthalen-2-yl)butyl)triphenyl phosphonium bromide] was tested, and the “Clot retraction (clot weight)” value [1] was “does not significantly alter”, the IC50 ([2]; read-out: IC50 for platelet aggregation, Convulxin) was 4.45 ± 0.65 µM and the IC50 ([2]; PMA 100 nM, washed platelets, read-out: IC50 for platelet aggregation, PMA) was > 20 µM. For the same compound, the IC50 ([2]; TRAP-6 5 μM, washed platelets, read-out: IC50 for platelet aggregation, TRAP-6) was 7.4 ± 0.82 µM, the IC50 ([2]; arachidonic acid 250 μg/mL, washed platelets, read-out: IC50 for platelet aggregation, Arachidonic Acid) was > 20 µM and the IC50 ([2]; collagen 2 μg/mL, washed platelets, read-out: IC50 for platelet aggregation, Collagen) was 2.62 ± 0.91 µM. The “Effect on platelet aggregation vs vehicle” value (shortened to “Effect … vs vehicle”) ([2]; all tested concentrations, arachidonic acid 250 μg/mL) was “None of the NP4 concentrations showed any effect”, the “Effect … vs vehicle” value ([2]; compound 2 μM, collagen 2 μg/mL) was “significant effect” and the “Effect … vs vehicle” value ([2]; compound 5 μM, Convulxin 20 ng/mL) was “had an effect”. The “Effect … vs vehicle” value ([2]; compound 5 μM, TRAP-6 5 μM) was “had an effect”, the “Effect … vs vehicle” value ([2]; compound 5 μM, collagen 2 μg/mL) was “had an effect” and the “Effect … vs vehicle” value ([2]; compound 10 μM, Convulxin 20 ng/mL) was “significantly decreases”. The “Effect … vs vehicle” value ([2]; compound 10 μM, PMA 100 nM) was “significantly decreases”, the “Effect … vs vehicle” value ([2]; compound 10 μM, TRAP-6 5 μM) was “significantly decreases” and the “Effect … vs vehicle” value ([2]; compound 10 μM, collagen 2 μg/mL) was “significantly decreases”. For the same compound, the “Platelet viability (Calcein-AM negative platelets)” value [3] was “none of the concentrations evaluated for NP4 showed significant effects”, the mtROS generation ([4]; 10 μM, MitoSOX, 10 min) was “able to increase” and the “Dependence of depolarizing and antiplatelet effect on mtROS” value ([4]; MitoTempol 1 µM added first, then NP4 10 µM) was “independent of mitochondrial ROS levels”.
